#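 Interpolation was linear, between the two tested concentrations surrounding the appropriate level; five concentrations were tested over 48 hours in 96-well plates. TGI: total growth inhibition.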
# How the values were obtained:
# Assay in all cases: NCI tumour cell line growth inhibition, 48 h
# [1] = system: OVCAR-4 ovarian
# [2] = system: OVCAR-5 ovarian
# [3] = system: SF-295 CNS
# [4] = system: SR leukemia
# [5] = system: RXF 393 renal
# [6] = system: TK-10 renal
# [7] = system: SW-620 colon
# [8] = system: CCRF-CEM leukemia
# [9] = system: BT-549 breast
# [10] = system: SN12C renal
# [11] = system: SK-MEL-28 melanoma
# [12] = system: T-47D breast
# [13] = system: SK-MEL-2 melanoma
# [14] = system: SK-OV-3 ovarian
# [15] = system: PC-3 prostate
# [16] = system: HS 578T breast
# [17] = system: EKVX NSCLC
# [18] = system: UACC-62 melanoma
# [19] = system: M14 melanoma
# [20] = system: NCI-H226 lung
# [21] = system: MCF7 breast
# [22] = system: MOLT-4 leukemia
# [23] = system: OVCAR-3 ovarian
# [24] = system: HT29 colon
# [25] = system: A549 NSCLC
# [26] = system: DU-145 prostate
# [27] = system: NCI-H23 lung
# [28] = system: COLO 205 colon
# [29] = system: SNB-19 CNS
# [30] = system: SNB-75 CNS
# [31] = system: U251 CNS
# [32] = system: HCT-116 colon
# [33] = system: HOP-92 NSCLC
# [34] = system: MALME-3M melanoma
# [35] = system: LOX IMVI melanoma
# [36] = system: HCC-2998 colon
# [37] = system: MDA-N
# [38] = system: MDA-MB-231 breast
# [39] = system: SF-539 CNS
# [40] = system: SF-268 CNS
# [41] = system: ACHN renal
# [42] = system: HOP-62 NSCLC
# [43] = system: RPMI-8226 leukemia
# [44] = system: CAKI-1 renal
# [45] = system: NCI-H460 lung
# [46] = system: MDA-MB-435
# [47] = system: SK-MEL-5 melanoma
# [48] = system: KM12 colon
# [49] = system: NCI/ADR-RES ovarian
# [50] = system: UO-31 renal
# [51] = system: UACC-257 melanoma
# [52] = system: IGROV1 ovarian
# [53] = system: K-562 leukemia
# [54] = system: NCI-H522 lung
# [55] = system: OVCAR-8 ovarian
# [56] = system: HCT-15 colon
# [57] = system: A498 renal
# [58] = system: 786-0 renal
smiles,measurement,setting,value
O=S1(=O)C[C@@H](NCc2ccccc2)[C@H](NCc2ccccc2)C1,TGI,[1],> 100 µM
same,TGI,[2],> 100 µM
same,TGI,[3],> 100 µM
same,TGI,[4],> 100 µM
same,TGI,[5],> 100 µM
same,TGI,[6],> 100 µM
same,TGI,[7],> 100 µM
same,TGI,[8],> 100 µM
same,TGI,[9],> 100 µM
same,TGI,[10],> 100 µM
same,TGI,[11],> 100 µM
same,TGI,[12],> 100 µM
same,TGI,[13],> 100 µM
same,TGI,[14],> 100 µM
same,TGI,[15],> 100 µM
same,TGI,[16],> 100 µM
same,TGI,[17],> 100 µM
same,TGI,[18],> 100 µM
same,TGI,[19],> 100 µM
same,TGI,[20],> 100 µM
same,TGI,[21],> 100 µM
same,TGI,[22],> 100 µM
same,TGI,[23],> 100 µM
same,TGI,[24],> 100 µM
same,TGI,[25],> 100 µM
same,TGI,[26],> 100 µM
same,TGI,[27],> 100 µM
same,TGI,[28],> 100 µM
same,TGI,[29],> 100 µM
same,TGI,[30],> 100 µM
same,TGI,[31],> 100 µM
same,TGI,[32],> 100 µM
same,TGI,[33],> 100 µM
same,TGI,[34],> 100 µM
same,TGI,[35],> 100 µM
same,TGI,[36],> 100 µM
same,TGI,[37],> 100 µM
same,TGI,[38],> 100 µM
same,TGI,[39],> 100 µM
same,TGI,[40],> 100 µM
same,TGI,[41],> 100 µM
same,TGI,[42],> 100 µM
same,TGI,[43],> 100 µM
same,TGI,[44],> 100 µM
same,TGI,[45],> 100 µM
same,TGI,[46],> 100 µM
same,TGI,[47],> 100 µM
same,TGI,[48],> 100 µM
same,TGI,[49],> 100 µM
same,TGI,[50],> 100 µM
same,TGI,[51],> 100 µM
same,TGI,[52],> 100 µM
same,TGI,[53],> 100 µM
same,TGI,[54],> 100 µM
same,TGI,[55],> 100 µM
O=C1c2cccc(O)c2C(=O)c2c(OC3OC(CO)C(O)C(O)C3O)cccc21 (stereo unspecified),TGI,[1],32.1 µM
same,TGI,[2],> 100 µM
same,TGI,[3],> 100 µM
same,TGI,[4],> 100 µM
same,TGI,[5],97.3 µM
same,TGI,[6],> 100 µM
same,TGI,[7],> 100 µM
same,TGI,[56],94.9 µM
same,TGI,[9],93.3 µM
same,TGI,[10],> 100 µM
same,TGI,[11],> 100 µM
same,TGI,[12],49.1 µM
same,TGI,[13],> 100 µM
same,TGI,[14],> 100 µM
same,TGI,[15],82 µM
same,TGI,[16],58.1 µM
same,TGI,[17],> 100 µM
same,TGI,[18],> 100 µM
same,TGI,[19],51.3 µM
same,TGI,[20],> 100 µM
same,TGI,[21],> 100 µM
same,TGI,[23],> 100 µM
same,TGI,[24],> 100 µM
same,TGI,[25],> 100 µM
same,TGI,[57],> 100 µM
same,TGI,[26],> 100 µM
same,TGI,[27],31.6 µM
same,TGI,[28],39.2 µM
same,TGI,[29],> 100 µM
same,TGI,[30],54.6 µM
same,TGI,[31],> 100 µM
same,TGI,[32],51 µM
same,TGI,[33],> 100 µM
same,TGI,[34],20.9 µM
same,TGI,[35],> 100 µM
same,TGI,[36],59.6 µM
same,TGI,[37],> 100 µM
same,TGI,[38],> 100 µM
same,TGI,[39],58.1 µM
same,TGI,[40],67.6 µM
same,TGI,[41],> 100 µM
same,TGI,[42],> 100 µM
same,TGI,[43],> 100 µM
same,TGI,[44],> 100 µM
same,TGI,[45],59 µM
same,TGI,[46],39.7 µM
same,TGI,[58],> 100 µM
same,TGI,[47],36 µM
same,TGI,[48],> 100 µM
same,TGI,[49],68.4 µM
same,TGI,[50],> 100 µM
same,TGI,[51],39.9 µM
same,TGI,[52],> 100 µM
same,TGI,[53],> 100 µM
same,TGI,[54],40.5 µM
same,TGI,[55],> 100 µM

# From PubChem BioAssay (NCI)
